{"source": "patent US20230293348A1", "about": "“DYES FOR USE IN A METHOD OF PHOTOPORATION OF THE INNER LIMITING MEMBRANE” (UNIVERSITEIT GENT, priority 2020, published 2023)", "key": {"human ILM [1]": {"system": "human ILM", "assay": "ILM ablation by ICG photoporation in human explants, cryosections stained for Collagen IV", "details": "1 mg/ml ICG, 0,4 J/cm2 laser fluence", "description": "FIG. 6: Images of cryosections of human explants stained for nuclei in the retina by Hoechst staining (indicated in grey - low contrast) and showing the ILM stained by antibodies against Collagen IV (indicated in white); scale = 25 µm. Top row: untreated; bottom row: treatment with 1 mg/ml ICG and 0,4 J/cm^2 laser fluence. Absence of the ILM is indicated by a dashed line.\nTherefore, the approach was tested on human samples. Since the thickness of the ILM is also age dependent, we investigated human ILM ablation in younger and older patients. […] As illustrated in the top row, the ILM in untreated explants becomes gradually thicker with increasing age, which is an observation in accordance with literature (FIG. 6, untreated). Treated samples (bottom row) were treated with 1 mg/ml ICG and 0,4 J/cm2 laser fluence. Absence of the ILM is indicated by a dashed line."}, "human ILM [2]": {"system": "human ILM", "assay": "Inherent affinity of free ICG for the ILM", "type": "binding", "details": "preliminary data"}, "[3]": {"system": "ILM of bovine retinal explants", "assay": "ILM perforation by ICG photoporation, cryosections stained for Collagen IV", "details": "ICG 1 mg/ml, 0,4 J/cm^2 800 nm 2 ps laser pulses", "text": "FIG. 2: Images of cryosections of conventional bovine explants stained for nuclei in the retina by Hoechst staining (indicated in grey - low contrast) and showing the ILM stained by antibodies against Collagen IV (indicated in white). […] The study aimed to perforate the ILM by photoporation. Thereto, a vital dye, in particular Indocyanine Green (ICG), was delivered to the ILM after which the retina was illuminated with a powerful but extremely short pulse of 800 nm laser light. Without being bound to theory, the absorbance of light by the ICG can result in the evaporation of the surrounding water, creating vapour nanobubbles (VNBs) which upon collapse can cause damage to neighbouring tissue such as in particular the ILM. To generate ILM perforation, an ICG solution (1 mg/ml) was applied on the ILM surface of bovine retinal explants followed by laser scanning of the tissue with 2 picosecond pulses."}, "[4]": {"system": "retinal surface of bovine retinal explants (Müller cell endfeet, nerve fibers)", "assay": "Retinal surface imaging with Mitotracker Deep Red and Hoechst after ICG photoporation", "details": "ICG 0,1 mg/ml, 0,4 J/cm^2 laser", "description": "FIG. 4: Images of the retinal surface after staining with Mitotracker and Hoechst. […] Scale bar = 25 µm.\nFurthermore, a method was tested to look at the retinal surface in more detail, allowing to visualize several types of structures such as nerve fibers, blood vessels, and Müller cells (cell type located right underneath the ILM). To this end, intact retinal explants were stained with a dye mixture of Mitotracker Deep Red and Hoechst, which allows to identify these structures. […] Indeed, in untreated explants, the retinal surface was neatly organized: a mosaic of Müller cell endfeet intertwined with bundles of nerve fibers."}, "ILM of bovine explants": {"system": "ILM of bovine explants", "assay": "Retinal entry of 100 nm polystyrene nanoparticles (Fluospheres) after ICG-mediated ILM perforation", "details": "ICG 1 mg/ml, 0,4 J/cm^2 laser", "text": "FIG. 5: Images of cryosections of bovine explants stained for nuclei in the retina by Hoechst (indicated in grey - low contrast). […] Scale = 25 µm\nIt was further tested whether ICG-mediated ILM ablation allowed to deliver therapeutics to the retina."}}, "note": "“Also recorded” adds a separate entry of the source."}
{"smiles": "CC1(C)C(/C=C/C=C/C=C/C=C2\\N(CCCCS(=O)(=O)O)c3ccc4ccccc4c3C2(C)C)=[N+](CCCCS(=O)(=O)[O-])c2ccc3ccccc3c21", "note": "[ICG, Indocyanine Green]", "values": [{"measurement": "ILM integrity on cryosections", "setting": "human ILM [1]; human explant patient one", "result": "fragmented ILM"}, {"measurement": "ILM integrity on cryosections", "setting": "human ILM [1]; human explant patient three", "result": "completely absent"}, {"measurement": "ILM integrity on cryosections", "setting": "human ILM [1]; human explant patient two", "result": "completely absent"}, {"measurement": "inherent affinity for the human ILM versus the bovine ILM", "setting": "human ILM [2]", "result": "remarkably higher than for the bovine ILM"}, {"measurement": "ILM integrity on cryosections", "setting": "[3]", "result": "ILM ablation; also recorded: most of the ILM was absent with only small parts remaining"}, {"measurement": "retinal surface organization (Mitotracker and Hoechst staining)", "setting": "[4]", "result": "greatly disturbed; also recorded: way more disorganized"}, {"measurement": "retinal entry of 100 nm polystyrene nanoparticles", "setting": "ILM of bovine explants", "result": "high retinal uptake; also recorded: massive entry of the nanoparticles into the retina"}]}
